Results taken from US5128338A, “Imidazo [1,2-c] quinazoline compounds” (priority 1990, dated 1992).

How the values were obtained:
porcine coronary = test: Porcine coronary relaxation (PGF2α-precontracted coronary segments); parameters: species or system pig (Yucatan mini pig); settings: for EC20 / EC50: Sus scrofa, 37° C., corrected for DMSO; for EC20: read-out: DE20, effect on coronary tension induced by PGF2α; for EC50: read-out: DE50, effect on coronary tension induced by PGF2α; for level of relaxation obtained as well as the 50% effect value (K0.5) obtained by displacement: overall judgement of relaxation and K0.5
Experimental: All the products studied were dissolved in DMSO at a concentration of 10^-2 M, then diluted to the desired concentrations in the experimental media. All of the ED20, ED50 and K0.5 values were corrected for the values obtained with DMSO under the same conditions of dilution.
Coronaries were taken on the heart of pigs (Yucatan mini pig), anesthetized under stresnil and pentobarbital. Proximal segments of the coronary were placed in an organ tank filled with Ringer solution at 37° C. The segments were tightened progressively to a base tension of around 6 g and contracted by the addition of PGF2α at a concentration of 4.10^-6 M. The potential of the products of the present invention to relax the coronary artery were then tested.
All of the compounds were tested for their capacity to relax the porcine coronary precontracted by PGF2α.

[1] = molecular target: central receptors for benzodiazepines; test: Displacement of [3H]-RO 151788, rat central nervous system microsomal fractions; assay type: binding; settings: corrected for DMSO, read-out: K0.5, central receptors, [^3 H]--RO 151788
[2] = molecular target: T1, peripheral receptors for benzodiazepines ([^3 H]-PK 11195) (Rattus norvegicus, UniProt P16257); test: Displacement of [3H]-PK 11195, rat heart microsomal fractions; assay type: binding; settings: corrected for DMSO, read-out: K0.5, peripheral receptors, [^3 H]--PK 11195;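 note: radioligand binding with bound label split from free by vacuum filtration, then quantified through liquid scintillation counting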
T1 construct: on microsomal fractions from rat heart; from tissue; host or cells: rat heart, microsomal fractions

[3] = molecular target: T2, peripheral receptors for benzodiazepines ([^3 H]-R05-4864) (Rattus norvegicus, UniProt P16257); test: Displacement of [3H]-R05-4864, rat heart microsomal fractions; assay type: binding; settings: corrected for DMSO, read-out: K0.5, peripheral receptors, [^3 H]--RO 54864;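 note: Read-out is filter-retained bound radioligand, separated from free ligand by vacuum filtration over GF/C and counted by liquid scintillation, with compounds first dissolved in DMSO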
T2 construct: on microsomal fractions from rat heart; from tissue; host or cells: rat heart, microsomal fractions

[4] = porcine coronary segments, PGF2α 4.10^-6 M

Compound	IC50 [1] [µM]	IC50 [2] [µM]	IC50 [3] [µM]	EC50 (porcine coronary; [4]) [µM]	level of relaxation obtained as well as the 50% effect value (K0.5) obtained by displacement (porcine coronary)	Effect on coronary tension induced by PGF2α (in words) (porcine coronary; [4])	EC20 (porcine coronary; [4]) [µM]
CCOC(=O)c1cn2c(=O)[nH]c3ccccc3c2n1 [Example 1, 2-Ethoxycarbonyl-5-oxo-5,6-dihydroimidazo[1,2-c]quinazoline]	1	> 100	61			No effect	
CCN(CC)C(=O)Cn1c(=O)n2cc(C(N)=O)nc2c2ccccc21 [Example 4, 2-Aminocarbonyl-6-N,N-diethylaminocarbonylmethyl-5-oxo-5,6-dihydroimidazo[1,2-c]quinazoline]	> 100	8	6	9.66			57.4
CC(C)NC(=O)Cn1c(=O)n2cc(-c3ccccc3)nc2c2ccccc21 [Example 14, 2-phenyl-6-N-isopropylaminocarbonylmethyl-5-oxo-5,6-dihydroimidazo[1,2-c]quinazoline]	> 100	> 100	> 100	13.8			386

Continued, in another order:

IC50 [1] [µM]	IC50 [2] [µM]	IC50 [3] [µM]	EC50 (porcine coronary; [4]) [µM]	level of relaxation obtained as well as the 50% effect value (K0.5) obtained by displacement (porcine coronary)	Compound	Effect on coronary tension induced by PGF2α (in words) (porcine coronary; [4])	EC20 (porcine coronary; [4]) [µM]
100	0.14	0.12	0.45	particularly favorable	CCN(CC)C(=O)Cn1c(=O)n2cc(-c3ccc(OC)cc3)nc2c2ccccc21 [Example 17, 2-(p-methoxyphenyl)-6-N,N-diethylaminocarbonylmethyl-5-oxo-5,6-dihydroimidazo[1,2-c]quinazoline]		2.22
100	10	2.3	7.67		CCN(CC)C(=O)CCCn1c(=O)n2cc(-c3ccccc3)nc2c2ccccc21 [Example 26, 2-phenyl-6-N,N-diethylaminocarbonylpropyl-5-oxo-5,6-dihydroimidazo[1,2-c]quinazoline]		45.3
> 100	0.0024	0.0031		particularly favorable	CCCN(CCC)C(=O)Cn1c(=O)n2c(C)c(-c3cccc(Cl)c3)nc2c2ccccc21 [Example 32, 2-(m-chlorophenyl)-3-methyl-6-N,N-dipropylaminocarbonylmethyl-5-oxo-5,6-dihydroimidazo[1,2-c]quinazoline]		
> 100	0.26	0.58	1		CCN(CC)C(=O)Cn1c(=O)n2cc(-c3ccco3)nc2c2ccccc21 [Example 21, 2-(2-furyl)-6-N,N-diethylaminocarbonylmethyl-5-oxo-5,6-dihydroimidazo[1,2-c]quinazoline]		3.89
